Data on one sequence can be found in article PMC5050486 (Scientific Reports, 2016).

One experiment addresses T1, human furin (Homo sapiens, UniProt P09958).
T1 construct: purchased New England Biolabs
Description: Host protease FRET test, furin. It is filed as biochemical. The following applies: 33 μM drug, FRET; N/I = no FRET inhibition; read-out: Percent Inhibition with 33 μM of drug, Furin.

In experiment [1] the test system is LF-PA treated mouse macrophage RAW264.7 cells. Format: cell-based.
Experiment [2] deals with Cholera toxin treated RAW264.7 cells. It is filed as cell-based, mouse.
For a further experiment, the target named is T2, caspase-3 (Homo sapiens, UniProt P42574).
T2 construct: purchased BioVision
T2 sequence (P42574 29-277): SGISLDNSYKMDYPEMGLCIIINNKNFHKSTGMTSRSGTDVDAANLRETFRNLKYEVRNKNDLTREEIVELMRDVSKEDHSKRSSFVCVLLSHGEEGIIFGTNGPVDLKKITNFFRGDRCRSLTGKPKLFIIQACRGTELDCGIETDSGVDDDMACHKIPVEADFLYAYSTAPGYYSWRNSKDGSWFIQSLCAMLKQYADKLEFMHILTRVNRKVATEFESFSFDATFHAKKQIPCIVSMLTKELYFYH
Description: Host protease FRET test, caspase-3. The following applies: 33 μM drug, FRET; N/I = no FRET inhibition; read-out: Percent Inhibition with 33 μM of drug, Casp 3. It is filed as biochemical.

Another experiment has as its target anthrax LF (Bacillus anthracis, UniProt P15917). Description: biochemical. The following applies: read-out: Percent Inhibition with 33 μM of drug, LF.
The test system of experiment [3] is Pseudomonas aeruginosa exotoxin A treated RAW264.7 cells. It is filed as cell-based, mouse.
The subject of experiment [4] is LF-PA63 treated RAW264.7 cells. Format: cell-based, mouse.
The target in a further experiment is cathepsin B (Homo sapiens, UniProt P07858). Description: Host protease FRET test, cathepsin B. The following applies: 33 μM drug, N/I = no FRET inhibition, read-out: Percent Inhibition with 33 μM of drug, Cath B. Format: biochemical.

“Also recorded” adds a separate entry of the source. Where no end group is shown, it is not given here.

T1 sequence (P09958 108-794): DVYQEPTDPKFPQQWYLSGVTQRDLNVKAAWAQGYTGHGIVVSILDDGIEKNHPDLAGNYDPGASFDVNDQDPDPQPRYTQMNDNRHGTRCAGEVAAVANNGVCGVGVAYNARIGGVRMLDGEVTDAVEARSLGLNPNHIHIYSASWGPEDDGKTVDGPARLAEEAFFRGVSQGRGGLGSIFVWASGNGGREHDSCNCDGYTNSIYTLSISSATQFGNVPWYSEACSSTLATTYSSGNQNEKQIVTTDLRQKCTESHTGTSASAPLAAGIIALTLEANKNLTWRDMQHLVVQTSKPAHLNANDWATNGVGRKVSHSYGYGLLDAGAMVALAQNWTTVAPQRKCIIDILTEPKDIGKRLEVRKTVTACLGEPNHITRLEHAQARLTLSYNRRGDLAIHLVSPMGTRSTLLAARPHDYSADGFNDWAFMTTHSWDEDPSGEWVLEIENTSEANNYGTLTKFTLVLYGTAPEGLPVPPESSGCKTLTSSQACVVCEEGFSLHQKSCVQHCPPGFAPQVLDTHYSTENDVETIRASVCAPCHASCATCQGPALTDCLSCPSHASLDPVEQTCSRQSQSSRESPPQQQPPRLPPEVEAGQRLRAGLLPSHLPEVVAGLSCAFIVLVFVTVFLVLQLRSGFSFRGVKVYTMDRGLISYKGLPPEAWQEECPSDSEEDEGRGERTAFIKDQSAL
Chain of anthrax LF (P15917 34-809 limits assumed): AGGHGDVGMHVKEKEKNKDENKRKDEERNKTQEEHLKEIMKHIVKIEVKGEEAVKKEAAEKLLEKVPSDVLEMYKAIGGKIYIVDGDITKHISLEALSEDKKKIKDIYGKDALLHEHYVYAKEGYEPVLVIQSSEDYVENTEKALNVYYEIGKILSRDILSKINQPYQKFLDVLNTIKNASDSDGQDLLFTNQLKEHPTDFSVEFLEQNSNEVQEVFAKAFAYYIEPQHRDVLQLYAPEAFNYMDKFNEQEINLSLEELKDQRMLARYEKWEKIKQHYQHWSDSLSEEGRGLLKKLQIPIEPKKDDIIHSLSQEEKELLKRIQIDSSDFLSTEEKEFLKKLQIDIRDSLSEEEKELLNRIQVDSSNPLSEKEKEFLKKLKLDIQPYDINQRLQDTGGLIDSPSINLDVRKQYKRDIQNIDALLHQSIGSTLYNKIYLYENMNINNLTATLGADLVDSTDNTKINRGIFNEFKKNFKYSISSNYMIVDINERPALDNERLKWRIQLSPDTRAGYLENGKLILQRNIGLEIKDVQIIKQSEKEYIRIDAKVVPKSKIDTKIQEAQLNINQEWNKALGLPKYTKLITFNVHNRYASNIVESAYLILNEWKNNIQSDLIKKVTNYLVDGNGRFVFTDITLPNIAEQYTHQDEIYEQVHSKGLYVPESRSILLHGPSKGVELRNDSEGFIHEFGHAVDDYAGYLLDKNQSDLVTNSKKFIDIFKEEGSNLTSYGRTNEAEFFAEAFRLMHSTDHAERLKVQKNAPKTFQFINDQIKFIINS

As to “MPRRRRSSSRPVRRRRRPRVSRRRRRRGGRRRR [Salmon Sperm Protamine]”, the inhibition at 33 µM on human furin turned out to be 96 ± 1.2%; on caspase-3 it was 87 ± 2.8%; on anthrax LF, 107 ± 1.4%; on cathepsin B, 65 ± 0.5%. For the same sequence, the “Protection against LF-PA mediated cell killing” value in experiment [1] is on record as “complete protection”. The “Protection against CT-mediated cell killing” value in experiment [2] is “substantial protection”. Besides, in experiment [3], the “Protection against PE-mediated cell killing” value is listed as “substantial protection”. For the same sequence, in experiment [4], the “Protection against cell death induced by LF and PA63” value is listed as “reduces cellular sensitivity; also recorded: effectively protected all cells”.
